Tested on: human cardiomyocytes

COc1cccc2c1C(=O)c1c(O)c3c(c(O)c1C2=O)C[C@@](O)(C(=O)CO)C[C@@H]3O[C@H]1C[C@H](N)[C@H](O)[C@H](C)O1 [free doxorubicin, (8S,10S)-10-(4-amino-5 hydroxy-6-methyl-tetrahydro-2H-pyran-2-yloxy)-6,8,11-trihydroxy-8-(2-hydroxyacetyl)-1-methoxy-7,8,9,10-tetrahydrotetracene-5,12-dione]
level of uptake into human cardiomyocytes: relatively much higher compared to both MM-302 and untargeted pegylated liposomal doxorubicin
